From PMC11446937, “Bacteria from the Amycolatopsis genus associated with a toxic bird secrete protective secondary metabolites” (Nature Communications, 2024)

What was measured:
C. albicans C.A. = assay: Disc-diffusion antimicrobial assay, clinically relevant indicator strains; type: cell-based; conditions: Amph B 10 µg/mL (DMSO/H2O)
Experimental: (§1) Disc-diffusion antimicrobial activity assays against clinically relevant indicator strains.
(§2) Pure compounds (1 mg/mL in DMSO or 50% MeOH) were tested for their antimicrobial activity against a variety of bacterial and fungal indicator strains: B. subtilis 6633 (Bs), S. aureus SG511 (Sa1), E. coli SG458 (Ec), P. aeruginosa K799/61 (Pa), S. aureus 134/94 (MRSA) (Sa2), E. faecalis 1528 (VRSA) (Ef), Mycobacterium vaccae 10670 (Mv), Sporobomyces salmonicolor 549 (Ss), C. albicans C.A. (Ca), and Penicillium notatum JP36 (Pn). On each disc, 50 µl compound solution (50 µg) were applied. Antimicrobial activity was determined by measuring the inhibition zone surrounding the disc in mm (n=3).
(§3) Bs: B. subtilis 663, Sa1: S. aureus SG511, Ec: E. coli SG458, Pa: P. aeruginosa K799/61, Sa2: S. aureus 134/94 (MRSA), Ef: E. faecalis 1528 (VRSA), Mv: M. vaccae 10670, Ss: S. salmonicolor 549, Ca: C. albicans C.A., Pn: P. notatum JP36. P: colonies in the inhibition zone, p: single colonies in the inhibition zone. A: no to low inhibition, n.t.: not tested.
(§4) B. subtilis 663, Sa1: S. aureus SG511, Ec: E. coli SG458, Ca: C. albicans C.A., P: colonies in the inhibition zone, […]

[1] = tested on: Sporobomyces salmonicolor 549; assay: as above; type: cell-based; conditions: Suppl. Table 17, 1 mg/mL in DMSO, 50 µl (50 µg) per disc, Amph B 10 µg/mL (DMSO/H2O), DMSO solvent control itself 13P, n=3
Experimental: as §1, §2, §3, §4

Penicillium notatum JP36 = assay: as above; type: cell-based; conditions: Suppl. Table 17, 1 mg/mL in DMSO, 50 µl (50 µg) per disc, Amph B 10 µg/mL (DMSO/H2O), DMSO solvent control itself 12P, n=3
Experimental: as §1, §2, §3, §4

C. albicans SC5314 = assay: Disc-diffusion antimicrobial assay, ecologically relevant indicator strains; type: cell-based, Candida albicans; conditions: Suppl. Table 16, pure compounds 10 mg/mL in DMSO, 5 µl per disc, control Amph B 10 µg/mL (DMSO/H2O), DMSO control 0, n=1
[2] = tested on: B. thuringiensis DSM104061; assay: as above; type: cell-based, Bacillus thuringiensis; conditions: Suppl. Table 16, pure compounds 10 mg/mL in DMSO, 5 µl per disc, control Cip 5 µg/mL (HCl), DMSO control 0, n=1
B. licheniformis DSM13 = assay: as above; type: cell-based, Bacillus licheniformis; conditions: Suppl. Table 16, pure compounds 10 mg/mL in DMSO, 5 µl per disc, control Cip 5 µg/mL (HCl), DMSO control 0, n=1
P. monteilii DSM1388 = assay: as above; type: cell-based, Pseudomonas monteilii; conditions: Suppl. Table 16, pure compounds 10 mg/mL in DMSO, 5 µl per disc, control Cip 5 µg/mL (HCl), DMSO control 0, n=1
K. rhizophila DSM11926 = assay: as above; type: cell-based, Kocuria rhizophila; conditions: Suppl. Table 16, pure compounds 10 mg/mL in DMSO, 5 µl per disc, control Cip 5 µg/mL (HCl), DMSO control 0, n=1
DENV2 NS2B-NS3 = assay: Fluorimetric protease inhibition assay; type: biochemical; conditions: 200 µM, 10 min, mean ± standard deviation, n=3
S. aureus SG511 = assay: Disc-diffusion antimicrobial assay, clinically relevant indicator strains; conditions: Suppl. Table 17, 1 mg/mL in DMSO, 50 µl (50 µg) per disc, Cip 5 µg/mL (H2O/HCl), DMSO solvent control itself 11P, n=3
B. subtilis 6633 = assay: as above; conditions: Suppl. Table 17, 1 mg/mL in DMSO, 50 µl (50 µg) per disc, Cip 5 µg/mL (H2O/HCl), DMSO solvent control itself 12P, n=3
urokinase (uPA) = assay: Fluorimetric protease inhibition assay; type: biochemical; conditions: 200 µM, 10 min, mean ± standard deviation, n=3
S. aureus 134/94 (MRSA) = assay: Disc-diffusion antimicrobial assay, clinically relevant indicator strains; conditions: Suppl. Table 17, 1 mg/mL in DMSO, 50 µl (50 µg) per disc, Cip 5 µg/mL (H2O/HCl), DMSO solvent control 0, n=3
SARS-CoV PLpro = conditions: 200 µM; fluorimetric, 10 min; mean ± standard deviation, n=3
cruzain = assay: Fluorimetric protease inhibition assay; type: biochemical, Trypanosoma cruzi; conditions: 200 µM, 10 min, mean ± standard deviation, n=3
sortase A (SrtA) = conditions: 200 µM
[3] = tested on: Mycobacterium vaccae 10670; assay: Disc-diffusion antimicrobial assay, clinically relevant indicator strains; conditions: Suppl. Table 17, 1 mg/mL in DMSO, 50 µl (50 µg) per disc, Cip 5 µg/mL (H2O/HCl), DMSO solvent control itself 11P, n=3
cathepsin L = assay: Fluorimetric protease inhibition assay; type: biochemical; conditions: 200 µM, 10 min, mean ± standard deviation, n=3
cathepsin B = assay: Fluorimetric protease inhibition assay; type: biochemical; conditions: 200 µM, 10 min, mean ± standard deviation, n=3
SARS-CoV2 Mpro = conditions: 200 µM; fluorimetric, 10 min; mean ± standard deviation, n=3
P. aeruginosa K799/61 = conditions: Suppl. Table 17; disc diffusion; 1 mg/mL in DMSO, 50 µl (50 µg) per disc; Cip 5 µg/mL (H2O/HCl); DMSO solvent control itself 12P; n=3
rhodesain = conditions: 200 µM
ZIKV NS2B-NS3 = conditions: 200 µM
E. coli SG458 = assay: Disc-diffusion antimicrobial assay, clinically relevant indicator strains; conditions: Suppl. Table 17, 1 mg/mL in DMSO, 50 µl (50 µg) per disc, Cip 5 µg/mL (H2O/HCl), DMSO solvent control itself 12P, n=3
E. faecalis 1528 = assay: as above; conditions: Suppl. Table 17, 1 mg/mL in DMSO, 50 µl (50 µg) per disc, Cip 5 µg/mL (H2O/HCl), DMSO solvent control itself 12p, n=3
[4] = Suppl. Table 17, disc diffusion, 1 mg/mL in DMSO, 50 µl (50 µg) per disc, DMSO solvent control 0, n=3

| Compound | inhibition zone, Ca (C. albicans C.A.; [4]) | inhibition zone, Ss [1] | inhibition zone, Pn (Penicillium notatum JP36) | inhibition zone, Ca2 (C. albicans SC5314) | inhibition zone, Bt [2] | inhibition zone, Bl (B. licheniformis DSM13) | inhibition zone, Pm (P. monteilii DSM1388) | inhibition zone, Kr (K. rhizophila DSM11926) | Protease inhibition rate, DENV2 (DENV2 NS2B-NS3) | inhibition zone, Sa1 (S. aureus SG511) | inhibition zone, Bs (B. subtilis 6633) | Protease inhibition rate, uPA (urokinase (uPA)) | inhibition zone, Sa2 (S. aureus 134/94 (MRSA)) | Protease inhibition rate, PLpro (SARS-CoV) (SARS-CoV PLpro) | Protease inhibition rate, Cruzain (cruzain) | Protease inhibition rate, SrtA (sortase A (SrtA)) | Protease inhibition rate, Cathepsin L (cathepsin L) | Protease inhibition rate, Cathepsin B (cathepsin B) | Protease inhibition rate, Mpro (SARS-CoV2) (SARS-CoV2 Mpro) | Protease inhibition rate, Rhodesain (rhodesain) | other results |
| --- | --- | --- | --- | --- | --- | --- | --- | --- | --- | --- | --- | --- | --- | --- | --- | --- | --- | --- | --- | --- | --- |
| C[C@@H]1[C@H](O)[C@@H](C)/C=C/C=C/C=C/C=C/C=C/C=C/C=C/[C@H](O[C@@H]2O[C@H](C)[C@@H](O)[C@H](N)[C@@H]2O)C[C@@H]2O[C@](O)(C[C@@H](O)C[C@@H](O)[C@H](O)CC[C@@H](O)C[C@@H](O)CC(=O)O[C@H]1C)C[C@H](O)[C@H]2C(=O)O [Amph B, Amphotericin B, reference compound] | 20 mm | 17p | 18p | 20 mm | – | – | – | – | – | – | – | – | – | – | – | – | – | – | – | – | inhibition zone, Ca (C. albicans C.A.; Suppl. Table 18, compound mixtures, total conc. 1 mg/mL in 50% MeOH, solvent control 0, n=1): 21 mm |
| O=C(O)c1cn(C2CC2)c2cc(N3CCNCC3)c(F)cc2c1=O [Cip, Ciprofloxacin, reference compound] | – | – | – | – | 28 mm | 35 mm | 33 mm | 22 mm | – | – | – | – | – | – | – | – | – | – | – | – | – |
| Pachycephalamide A [Compound 1] | – | 15p | 11p | 0 mm | 0 mm | 0 mm | 0 mm | 0 mm | 8.57 ± 3.83% | 0 mm | 0 mm | 8.32 ± 4.90% | 0 mm | 1.01 ± 1.74% | 64.85 ± 1.50% | 12.86 ± 2.35 | 61.88 ± 2.85% | 55.19 ± 2.16% | 12.82 ± 8.66% | 55.29 ± 2.15 | inhibition zone, Mv [3]: 0 mm; inhibition zone, Pa (P. aeruginosa K799/61): 18P; Protease inhibition rate, ZIKV (ZIKV NS2B-NS3): 7.99 ± 3.53; inhibition zone, Ec (E. coli SG458): 0 mm |
| Pachycephalamide B [Compound 2] | 0 mm | 14p | 13p | 0 mm | 0 mm | 0 mm | 0 mm | 0 mm | 29.25 ± 7.00% | 0 mm | 0 mm | 0 ± 0% | 0 mm | 14.94 ± 1.31% | 49.62 ± 3.44% | 61.07 ± 4.93 | 50.42 ± 1.21% | 54.94 ± 2.96% | 57.34 ± 9.94% | 47.71 ± 2.73 | inhibition zone, Pa (P. aeruginosa K799/61): 18P; Protease inhibition rate, ZIKV (ZIKV NS2B-NS3): 29.95 ± 3.36; inhibition zone, Ec (E. coli SG458): 15P |
| Pachycephalamide C [Compound 3] | 0 mm | 22p | 13p | 0 mm | 0 mm | 0 mm | 0 mm | 0 mm | 9.19 ± 3.06% | 0 mm | 0 mm | 0 ± 0% | 0 mm | 0 ± 0% | 63.82 ± 1.43% | 14.00 ± 4.62 | 62.51 ± 4.09% | 56.16 ± 6.18% | 9.25 ± 7.28% | 58.33 ± 1.36 | inhibition zone, Ec (E. coli SG458): 15P |
| Pachycephalamide D [Compound 4] | 0 mm | 25p | 12p | 0 mm | 0 mm | 0 mm | 0 mm | 0 mm | 33.81 ± 3.08% | 0 mm | 0 mm | 0.56 ± 0.90% | 0 mm | 2.05 ± 2.29% | 73.97 ± 1.54% | 28.78 ± 4.59 | 78.67 ± 2.19% | 73.50 ± 4.05% | 24.32 ± 2.62% | 72.76 ± 1.07 | inhibition zone, Mv [3]: 0 mm; inhibition zone, Pa (P. aeruginosa K799/61): 18P; Protease inhibition rate, ZIKV (ZIKV NS2B-NS3): 35.04 ± 1.21; inhibition zone, Ec (E. coli SG458): 13P |
| Pachycephalamide E [Compound 5] | 0 mm | 19p | 14p | 0 mm | 0 mm | 0 mm | 0 mm | 7 mm | 19.02 ± 6.12% | 0 mm | 0 mm | 0 ± 0% | 0 mm | 0 ± 0% | 43.80 ± 2.31% | 17.94 ± 1.28 | 47.31 ± 2.53% | 47.52 ± 9.52% | 14.75 ± 7.06% | 48.22 ± 1.63 | inhibition zone, Ef (E. faecalis 1528): 13p; inhibition zone, Pa (P. aeruginosa K799/61): 17P; Protease inhibition rate, ZIKV (ZIKV NS2B-NS3): 22.71 ± 1.47; inhibition zone, Ec (E. coli SG458): 15P |
